“Also recorded” adds a separate entry of the source.
Key:
sickle cells [1] = assay: Microfluidic assay of the efficacy of an anti-sickling oxygen modulator on patient samples; type: cell-based, human; conditions: blood samples of 5 patients; FIG. 6D
Description: This, however, could not be detected using conventional hematological assay, such as Hb electrophoresis or HPLC.

sickle cells [2] = assay: Microfluidic cell sickling assay (kinetics of cell sickling) under controlled low O2 tension, cell-imaging analysis; type: cell-based, human; conditions: sickle cells from patients on HU treatment vs off HU; PaO2 15 mm Hg; FIG. 6A
Experimental: (§1) A study was conducted to develop and evaluate the exemplary system and method comprising microfluidic assays of sickle cell functional properties to provide quantitative assessments of disease heterogeneity and severity. A microfluidic strategy for on-chip O2 control was developed, which is critical to measure O2-dependent sickle cell functional properties. This method utilizes gas permeability of thin PDMS film (˜150 μm thick) that enables rapid diffusion of O2 at a specific PaO2 value from the gas channel to the cell channel. […]
(§2) Cell sickling events induced by exposing sickle cells to a transient hypoxia (e.g., reduce the atmospheric (atm) PaO2 to a low O2 tension level) are measured under stationary condition (FIG. 5A). […] Sickle cell rheology (deformability and occlusion) are measured under flow condition for 60 s, where sickle cells with extended delay time in HbS polymerization can escape the micro-slits but those containing rigid HbS fibers (undissolved HbS or hypoxia induced HbS fibers) lose their deformability and become trapped at the micro-slits (FIG. 5B). These two aspects of sickle cell behavior measured under controlled O2 tension (in exposure to testing PaO2 15 mm Hg briefly for 60 s) provided quantitative cell functional assessment, which show strong linear correlation to patient's HbS level, as obtained from standard HPLC (FIG. 5C and FIG. 5D). […]

fetal hemoglobin (HbF) = conditions: hematological response to HU, literature [38]; cited from earlier work
sickle cells [3] = assay: Microfluidic sickle cell rheology assay (occlusion/obstruction at micro-slits) under controlled low O2 tension; type: cell-based, human; conditions: sickle cells from patients with HU treatment vs without; PaO2 15 mm Hg, flow 60 s; FIG. 6B
Experimental: as §1, §2

SMILES	dose dependence of anti-sickling efficacy, patient-specific response (sickle cells [1])	delay time of cell sickling events (sickle cells [2])	HbF level in some patients (fetal hemoglobin (HbF))	occlusion fraction (obstruction in micro-slits) (sickle cells [3])
O=Cc1ccc(CO)o1 [5HMF, 5-(hydroxymethyl) furfural]	patient-specific response; also recorded: dosedependence is similar among 5 patients, but significant variations exist	–	–	–
NC(=O)NO [HU, hydroxyurea]	–	significantly extended	up to 40%	much less obstruction

Source: US20250035576A1, “AUTOMATED OXYGEN-DEPENDENT BLOOD FUNCTION MEASUREMENT SYSTEMS AND METHODS” (FLORIDA ATLANTIC UNIVERSITY BOARD OF TRUSTEES, priority 2023, published 2025)
